Laboratory results taken from paper PMC10140010 (Investigational New Drugs, 2023).
Values joined by “and” are separate entries in the source; they are usually repeats but may differ in a detail not shown here. Equal values may be shown once. Read-outs that look alike come from different tables or passages of the source.

Assays:
DYRK3 = DYRK3 (Homo sapiens, UniProt O43781); assay: Z'-LYTE kinase selectivity; assay type: biochemical
[1] = test system: Ba/F3 (SLC34A2-ROS1) cells; assay: Cell proliferation (CellTiter-Glo); assay type: cell-based
Description: (§1) Cell proliferation assay was performed using methods reported in the previous article. Cell proliferation was measured using the CellTiter-Glo® (CTG) Luminescent Cell Viability Assay (Promega, WI, USA). Cells were seeded in 96-well plates at 15,000 cells per well in detection medium containing 0.5% fetal bovine serum and placed in an incubator at 37℃ and 5% CO2 overnight. On the following day, iruplinalkib was serially diluted with DMSO, further diluted in assay medium, and added to the designated wells for serial dilution of iruplinalkib to the target gradient concentration.

Ba/F3 cells = assay: Cell proliferation (CellTiter-Glo); assay type: cell-based
Description: as §1

[2] = test system: NIH-3T3 (CD74-ROS1) cells; assay: Cell proliferation (CellTiter-Glo); assay type: cell-based
Description: as §1

[3] = test system: Karpas299 (NPM-ALK) cells; assay: Cell proliferation (CellTiter-Glo); assay type: cell-based
Description: as §1

[4] = test system: HCC-78 (SLC34A2-ROS1) cells; assay: Cell proliferation (CellTiter-Glo); assay type: cell-based
Description: as §1

[5] = test system: NCI-H1975 (EGFR^L858R/T790M) cells; assay: Cell proliferation (CellTiter-Glo); assay type: cell-based
Description: as §1

CHK1 = CHK1 (Homo sapiens, UniProt O14757); assay: Z'-LYTE kinase selectivity; assay type: biochemical
Sequence of CHK1 (O14757 whole entry): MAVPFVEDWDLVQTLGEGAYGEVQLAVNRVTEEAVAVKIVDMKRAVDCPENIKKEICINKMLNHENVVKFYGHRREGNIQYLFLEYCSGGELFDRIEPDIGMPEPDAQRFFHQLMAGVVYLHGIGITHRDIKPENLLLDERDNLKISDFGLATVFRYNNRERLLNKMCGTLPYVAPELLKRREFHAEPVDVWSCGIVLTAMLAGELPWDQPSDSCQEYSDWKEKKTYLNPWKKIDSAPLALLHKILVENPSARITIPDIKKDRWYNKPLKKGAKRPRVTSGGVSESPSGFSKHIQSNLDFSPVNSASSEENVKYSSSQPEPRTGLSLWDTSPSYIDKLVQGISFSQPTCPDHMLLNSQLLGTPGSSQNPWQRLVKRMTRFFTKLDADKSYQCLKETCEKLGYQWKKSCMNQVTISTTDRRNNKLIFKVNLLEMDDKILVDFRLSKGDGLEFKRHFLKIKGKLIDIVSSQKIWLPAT

EPHA2 = EPHA2 (Homo sapiens, UniProt P29317); assay: Z'-LYTE kinase selectivity; assay type: biochemical
Sequence of EPHA2 (P29317 24-976): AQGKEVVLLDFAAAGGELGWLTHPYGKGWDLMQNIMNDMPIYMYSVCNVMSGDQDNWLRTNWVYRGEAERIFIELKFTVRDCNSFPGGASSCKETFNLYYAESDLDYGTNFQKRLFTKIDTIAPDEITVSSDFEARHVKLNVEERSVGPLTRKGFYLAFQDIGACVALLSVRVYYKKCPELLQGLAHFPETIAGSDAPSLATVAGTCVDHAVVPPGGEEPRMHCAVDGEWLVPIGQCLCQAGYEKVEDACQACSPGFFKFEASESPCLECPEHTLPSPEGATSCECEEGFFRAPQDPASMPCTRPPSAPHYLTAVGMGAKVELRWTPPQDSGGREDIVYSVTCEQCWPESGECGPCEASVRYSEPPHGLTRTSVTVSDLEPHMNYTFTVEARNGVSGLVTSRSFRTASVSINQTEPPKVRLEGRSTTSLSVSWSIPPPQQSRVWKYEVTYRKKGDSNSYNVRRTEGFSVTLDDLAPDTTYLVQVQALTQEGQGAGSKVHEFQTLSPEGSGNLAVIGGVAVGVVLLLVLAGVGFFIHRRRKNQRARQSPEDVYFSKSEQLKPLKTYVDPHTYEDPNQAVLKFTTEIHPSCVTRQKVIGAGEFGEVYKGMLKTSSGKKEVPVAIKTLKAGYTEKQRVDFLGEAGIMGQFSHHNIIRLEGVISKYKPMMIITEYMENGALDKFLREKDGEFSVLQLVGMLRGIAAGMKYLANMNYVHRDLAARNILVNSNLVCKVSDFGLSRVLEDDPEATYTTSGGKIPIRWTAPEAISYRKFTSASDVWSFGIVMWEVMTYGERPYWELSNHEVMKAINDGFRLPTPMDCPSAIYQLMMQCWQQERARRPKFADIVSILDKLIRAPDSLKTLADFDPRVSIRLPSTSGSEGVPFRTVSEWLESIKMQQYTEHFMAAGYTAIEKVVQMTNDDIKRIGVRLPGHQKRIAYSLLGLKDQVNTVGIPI

CK1 alpha = CK1 alpha (Homo sapiens, UniProt P48729); assay: Z'-LYTE kinase selectivity; assay type: biochemical
Sequence of CK1 alpha (P48729 whole entry): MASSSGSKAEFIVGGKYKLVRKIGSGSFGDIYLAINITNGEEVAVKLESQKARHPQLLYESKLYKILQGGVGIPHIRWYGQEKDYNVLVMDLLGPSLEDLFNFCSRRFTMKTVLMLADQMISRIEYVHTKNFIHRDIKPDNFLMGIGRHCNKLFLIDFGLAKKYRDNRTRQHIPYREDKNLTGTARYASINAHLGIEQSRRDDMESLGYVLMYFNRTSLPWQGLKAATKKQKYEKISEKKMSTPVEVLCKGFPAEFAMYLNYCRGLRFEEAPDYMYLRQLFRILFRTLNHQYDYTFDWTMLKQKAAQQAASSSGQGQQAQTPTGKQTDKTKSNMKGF

[6] = test system: phosphorylation of ALK, AKT, ERK, STAT3 and STAT5 in NCI-H3122 tumor tissue; assay: Phosphorylation of downstream signal molecules in tumor tissue of NCI-H3122 xenograft; assay type: in vivo, BALB/c nude mice; conditions: 8 h after administration
Description: In general, the cells were exposed to the drug and were harvested for western blot analysis. SDS-PAGE was used to separate the proteins of interest, which were then transferred to a nitrocellulose (NC) filtration membrane and soaked in a blocking solution [5% non-fat dry milk in tris-buffered saline with Tween 20 (TBST)] for 1 h at room temperature. Thereafter, the membrane was probed overnight with primary antibodies at 4℃ and washed three times with TBST. The corresponding secondary antibody diluent was added, incubated at room temperature for 1 h, and washed 3 times with TBST. After adding the enhanced chemiluminescence developer to the NC filtration membrane, it is developed in the imaging system (ChemiDoc™ XRS^+, BIO-RAD). See Supplementary Table 2 for details of the antibodies used.
In order to check how iruplinalkib exerts its anti-tumor effects in vivo, tumor tissue samples were collected at 1 and 8 h after the last dose, and the phosphorylation level of downstream signaling pathways molecules were detected.

TNIK = TNIK (Homo sapiens, UniProt Q9UKE5); assay: Z'-LYTE kinase selectivity; assay type: biochemical
Sequence of TNIK (Q9UKE5 whole entry): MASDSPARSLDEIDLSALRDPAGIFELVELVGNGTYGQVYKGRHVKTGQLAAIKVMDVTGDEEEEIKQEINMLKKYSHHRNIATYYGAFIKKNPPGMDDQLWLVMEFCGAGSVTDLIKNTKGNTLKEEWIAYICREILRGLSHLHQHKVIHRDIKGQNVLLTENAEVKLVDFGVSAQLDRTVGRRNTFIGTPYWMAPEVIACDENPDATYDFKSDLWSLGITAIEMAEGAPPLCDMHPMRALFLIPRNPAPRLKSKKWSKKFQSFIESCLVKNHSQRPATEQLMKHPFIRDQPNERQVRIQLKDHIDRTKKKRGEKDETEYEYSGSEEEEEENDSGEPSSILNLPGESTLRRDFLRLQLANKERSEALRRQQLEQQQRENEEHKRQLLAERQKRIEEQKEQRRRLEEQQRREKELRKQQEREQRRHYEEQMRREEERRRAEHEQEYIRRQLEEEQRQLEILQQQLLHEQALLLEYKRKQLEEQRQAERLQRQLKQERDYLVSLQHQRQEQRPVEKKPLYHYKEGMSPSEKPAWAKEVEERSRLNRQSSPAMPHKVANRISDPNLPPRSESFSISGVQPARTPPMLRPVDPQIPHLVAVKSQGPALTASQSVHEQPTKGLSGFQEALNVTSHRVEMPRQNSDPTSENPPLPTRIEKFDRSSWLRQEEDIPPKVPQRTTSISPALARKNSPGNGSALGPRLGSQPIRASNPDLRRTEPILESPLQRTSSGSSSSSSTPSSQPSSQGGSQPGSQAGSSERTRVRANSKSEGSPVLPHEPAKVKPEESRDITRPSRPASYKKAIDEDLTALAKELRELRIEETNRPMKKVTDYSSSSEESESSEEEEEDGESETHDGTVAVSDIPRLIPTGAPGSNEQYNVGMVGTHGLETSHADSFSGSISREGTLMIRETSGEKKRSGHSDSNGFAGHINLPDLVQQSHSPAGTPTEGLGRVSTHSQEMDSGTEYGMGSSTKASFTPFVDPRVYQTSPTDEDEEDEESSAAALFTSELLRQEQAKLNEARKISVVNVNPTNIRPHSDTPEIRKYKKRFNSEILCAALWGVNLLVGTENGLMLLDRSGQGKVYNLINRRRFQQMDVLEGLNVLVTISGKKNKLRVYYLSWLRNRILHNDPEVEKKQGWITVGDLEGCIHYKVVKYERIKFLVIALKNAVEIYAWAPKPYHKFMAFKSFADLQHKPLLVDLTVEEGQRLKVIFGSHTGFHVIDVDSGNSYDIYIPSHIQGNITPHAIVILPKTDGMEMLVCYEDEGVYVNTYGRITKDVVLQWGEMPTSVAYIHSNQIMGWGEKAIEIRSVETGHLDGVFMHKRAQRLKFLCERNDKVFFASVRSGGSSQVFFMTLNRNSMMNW

[7] = test system: NCI-H3122 (EML4-ALK) xenograft; assay: NCI-H3122 cell line-derived xenograft model (tumor volume, body weight); assay type: in vivo, BALB/c nude mice; conditions: for Tumor volume, individual animals: in mm³
Description: Female BALB/c nude mice (4–6 weeks old) were provided by Shanghai Sipple-Bikai Laboratory Animal Co., Ltd. and Beijing Vital River Laboratory Animal Technology Co., Ltd. The mice were housed in a specific pathogen-free environment under a 12 h light/dark cycle, and had free access to sterile animal feed and water.
PDX and CDX models were used for in vivo studies. Patient-derived tumors tissues were divided into about 30 mm^3 and transplanted into the right dorsal subcutis. Treatment began when the tumor size reached to 200 mm^3. The mice were randomly assignied into the corresponding dosing groups (9 mice in each group). Drugs were deliverd via daily oral for 4 weeks. Tumor size was measured periodically using a digital caliper (Cal Pro, Sylvac, Switzerland), and tumor volume was calculated as 0.5 × length × width^2. For more detailed information, please refer to Supplementary materials. All procedures and protocols of xenograft models were approved by the Institutional Animal Care and Use Committee of WuXi AppTec.
NCI-H3122 cells were re-suspended with 0.9% sodium chloride, and then 6×10^6 cells in 100 μL was inoculated subcutaneously into the right armpit of nude mice to prepare solid tumor models under sterile conditions. […] Groups were gavaged once daily with the base dose of drug for 21 days. The blank control group was given the same volume of vehicle (sterile water) injection according to the same protocol, with the dose volume of 100 μL/10 g.

GSK3 beta = GSK3 beta (Homo sapiens, UniProt P49841); assay: Z'-LYTE kinase selectivity; assay type: biochemical
Sequence of GSK3 beta (P49841 whole entry): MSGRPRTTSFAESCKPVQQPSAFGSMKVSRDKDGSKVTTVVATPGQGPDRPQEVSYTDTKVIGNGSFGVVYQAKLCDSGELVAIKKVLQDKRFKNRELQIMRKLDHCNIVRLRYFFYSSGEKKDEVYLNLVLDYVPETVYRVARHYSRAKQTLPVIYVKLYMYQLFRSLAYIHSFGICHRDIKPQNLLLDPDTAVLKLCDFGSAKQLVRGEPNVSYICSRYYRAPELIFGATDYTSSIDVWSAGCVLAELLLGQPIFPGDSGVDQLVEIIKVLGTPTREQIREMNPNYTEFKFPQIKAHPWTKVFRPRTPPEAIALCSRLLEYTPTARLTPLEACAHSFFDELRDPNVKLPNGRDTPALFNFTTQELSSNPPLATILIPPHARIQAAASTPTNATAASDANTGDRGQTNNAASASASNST

[8] = test system: Ba/F3 (EML4-ALK^C1156Y) cells; assay: Cell proliferation (CellTiter-Glo); assay type: cell-based
Description: as §1
(§2) Transfection was performed when cell confluent reached 70–90% in 12-well plates. Opti-MEM medium was used to dilute Lipofectamine 3000 reagent (ThermoFisher, MA, USA) and siRNA separately and mixed well. The mixture was added to the cells after incubation at room temperature for 15 min, then at 37℃ for 2–4 days.

[9] = test system: Ba/F3 (EML4-ALK^WT) cells; assay: Cell proliferation (CellTiter-Glo); assay type: cell-based
Description: as §1, §2

JNK1 = JNK1 (Homo sapiens, UniProt P45983); assay: Z'-LYTE kinase selectivity; assay type: biochemical
Sequence of JNK1 (P45983 whole entry): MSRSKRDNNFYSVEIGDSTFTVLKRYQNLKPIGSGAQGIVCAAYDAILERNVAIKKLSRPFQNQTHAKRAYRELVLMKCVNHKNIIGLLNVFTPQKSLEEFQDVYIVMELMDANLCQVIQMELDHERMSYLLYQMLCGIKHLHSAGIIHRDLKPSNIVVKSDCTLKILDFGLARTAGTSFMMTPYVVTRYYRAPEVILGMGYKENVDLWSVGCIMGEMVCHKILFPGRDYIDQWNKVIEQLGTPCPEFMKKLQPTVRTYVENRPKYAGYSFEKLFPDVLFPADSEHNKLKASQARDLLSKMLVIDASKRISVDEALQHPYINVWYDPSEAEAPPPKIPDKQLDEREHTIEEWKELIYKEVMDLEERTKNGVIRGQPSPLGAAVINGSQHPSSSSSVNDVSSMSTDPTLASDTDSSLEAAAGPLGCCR

CaMK2 alpha = CaMK2 alpha (Homo sapiens, UniProt Q9UQM7); assay: Z'-LYTE kinase selectivity; assay type: biochemical
Sequence of CaMK2 alpha (Q9UQM7 whole entry): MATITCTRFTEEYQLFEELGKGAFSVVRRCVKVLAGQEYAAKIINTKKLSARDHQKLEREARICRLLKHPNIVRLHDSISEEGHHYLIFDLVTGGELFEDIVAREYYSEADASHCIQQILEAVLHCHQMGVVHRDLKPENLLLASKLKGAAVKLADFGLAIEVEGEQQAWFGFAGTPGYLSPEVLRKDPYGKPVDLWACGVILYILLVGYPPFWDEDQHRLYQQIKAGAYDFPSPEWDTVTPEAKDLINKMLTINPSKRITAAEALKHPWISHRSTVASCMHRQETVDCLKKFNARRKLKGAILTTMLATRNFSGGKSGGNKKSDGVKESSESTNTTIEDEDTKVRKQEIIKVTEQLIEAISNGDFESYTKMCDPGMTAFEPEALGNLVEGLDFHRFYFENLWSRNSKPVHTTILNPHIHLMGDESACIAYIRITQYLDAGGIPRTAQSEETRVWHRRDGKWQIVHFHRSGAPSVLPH

LCK = LCK (Homo sapiens, UniProt P06239); assay: Z'-LYTE kinase selectivity; assay type: biochemical
[10] = 5mg/kg PO QD×21, day 0 after administration
[11] = 5mg/kg PO QD×21, day 3 after administration
[12] = 5mg/kg PO QD×21, day 6 after administration
[13] = 5mg/kg PO QD×21, day 9 after administration
[14] = 5mg/kg PO QD×21, day 13 after administration
[15] = 5mg/kg PO QD×21, day 16 after administration
[16] = 5mg/kg PO QD×21, day 20 after administration
[17] = 2.5mg/kg PO QD×21, day 0 after administration
[18] = 2.5mg/kg PO QD×21, day 3 after administration
[19] = 2.5mg/kg PO QD×21, day 6 after administration
[20] = 2.5mg/kg PO QD×21, day 9 after administration
[21] = 2.5mg/kg PO QD×21, day 13 after administration
[22] = 2.5mg/kg PO QD×21, day 16 after administration
[23] = 2.5mg/kg PO QD×21, day 20 after administration

Sequence of DYRK3 (O43781 whole entry): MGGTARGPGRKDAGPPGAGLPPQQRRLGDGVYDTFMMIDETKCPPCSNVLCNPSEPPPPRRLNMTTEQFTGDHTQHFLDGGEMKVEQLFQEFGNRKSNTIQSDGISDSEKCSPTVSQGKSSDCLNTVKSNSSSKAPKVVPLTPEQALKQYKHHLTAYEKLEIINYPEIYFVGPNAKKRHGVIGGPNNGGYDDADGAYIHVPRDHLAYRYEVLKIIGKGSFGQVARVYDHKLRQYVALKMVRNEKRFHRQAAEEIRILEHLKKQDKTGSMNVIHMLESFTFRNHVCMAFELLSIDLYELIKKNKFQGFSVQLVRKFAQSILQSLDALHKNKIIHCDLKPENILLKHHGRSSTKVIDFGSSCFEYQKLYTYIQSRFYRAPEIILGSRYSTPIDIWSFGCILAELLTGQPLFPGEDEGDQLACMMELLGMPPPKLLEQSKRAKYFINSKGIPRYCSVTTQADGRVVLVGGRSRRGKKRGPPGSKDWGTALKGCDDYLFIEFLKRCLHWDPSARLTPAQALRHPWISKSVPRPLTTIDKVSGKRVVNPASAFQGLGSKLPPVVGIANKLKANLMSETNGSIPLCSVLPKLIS

With `COc1cc(N2CCC(N3CCN(C)CC3)CC2)ccc1Nc1ncc(Cl)c(Nc2ccccc2P(C)(C)=O)n1` [Brigatinib, reference compound] the IC50 (DYRK3) was over 10000 nM, the IC50 ([1]; read-out: IC50 BaF3 SLC34A2-ROS1) was 6.49 nM and the IC50 (Ba/F3 cells; read-out: IC50 BaF3) was 2120 ± 23 nM. For the same molecule, the IC50 [2] was 469 nM, the IC50 [3] was 9 nM and the IC50 [4] was 425 nM. The IC50 [5] was 479 ± 110 nM, the IC50 (CHK1) was 70 ± 32 nM and the IC50 (EPHA2) was over 10000 nM. For the same molecule, the IC50 (CK1 alpha) was over 10000 nM, the “levels of phosphorylation of STAT3 and STAT5 in tumor tissue” value [6] was “decreased” and the IC50 (TNIK) was 2370 ± 1330 nM. For the same molecule, the Tumor volume Mean [7, 10] was 174 mm³, the “Tumor volume, individual animals” value [7, 10] was 116 and 221 and 152 and 134 and 154 and 194 and 207 and 229 and the Tumor volume Mean [7, 11] was 252 mm³. For the same molecule, the “Tumor volume, individual animals” value [7, 11] was 235 and 195 and 320 and 239 and 193 and 260 and 247 and 262 and 319, the Tumor volume Mean [7, 12] was 352 mm³ and the “Tumor volume, individual animals” value [7, 12] was 344 and 246 and 444 and 301 and 248 and 364 and 372 and 370 and 474. The Tumor volume Mean [7, 13] was 461 mm³, the “Tumor volume, individual animals” value [7, 13] was 473 and 337 and 548 and 418 and 289 and 518 and 482 and 535 and 555 and the Tumor volume Mean [7, 14] was 502 mm³. The “Tumor volume, individual animals” value [7, 14] was 454 and 241 and 654 and 480 and 315 and 575 and 637 and 495 and 666, the Tumor volume Mean [7, 15] was 547 mm³ and the “Tumor volume, individual animals” value [7, 15] was 521 and 320 and 707 and 541 and 350 and 627 and 656 and 464 and 737. The Tumor volume Mean [7, 16] was 612 mm³, the “Tumor volume, individual animals” value [7, 16] was 710 and 414 and 729 and 637 and 412 and 711 and 707 and 501 and 687 and the IC50 (GSK3 beta) was over 10000 nM. The IC50 ([8]; read-out: IC50 BaF3-EML4-ALK C1156Y) was 14 nM, the IC50 ([9]; read-out: IC50 BaF3-EML4-ALK WT) was 6 nM and the IC50 (JNK1) was 1520 ± 733 nM. For the same molecule, the IC50 (CaMK2 alpha) was 319 ± 13 nM and the IC50 (LCK) was 444 ± 84 nM.

In the case of `COc1cc(N2CCC3(CCN(C)CC3)CC2)ccc1Nc1ncc(Cl)c(Nc2ccccc2P(C)(C)=O)n1` [Iruplinalkib], the IC50 (DYRK3) is reported as 8010 ± 583 nM, the IC50 ([1]; Mus musculus, BaF3) is reported as 4.05 nM and the IC50 (Ba/F3 cells; Mus musculus, BaF3) is reported as 2210 ± 94 nM. For the same molecule, the IC50 ([2]; Mus musculus, NIH3T3) was 342 nM, the IC50 [3] was 4.5 ± 0.7 nM and the IC50 ([4]; Homo sapiens, HCC78) was 228 nM. It also gave an IC50 ([5]; Homo sapiens, NCI-H1975) of 508 ± 96 nM, an IC50 (CHK1) of 185 ± 41 nM and an IC50 (EPHA2) of over 10000 nM. For the same molecule, the IC50 (CK1 alpha) was over 10000 nM, the “levels of phosphorylation of STAT3 and STAT5 in tumor tissue” value [6] was “decreased” and the IC50 (TNIK) was 3210 ± 1540 nM. The Tumor volume Mean [7, 17] was 176 mm³, the “Tumor volume, individual animals” value [7, 17] was 188 and 164 and 230 and 150 and 236 and 136 and 182 and 147 and the Tumor volume Mean [7, 18] was 295 mm³. The “Tumor volume, individual animals” value [7, 18] was 324 and 257 and 368 and 284 and 366 and 229 and 267 and 234, the Tumor volume Mean [7, 19] was 449 mm³ and the “Tumor volume, individual animals” value [7, 19] was 431 and 392 and 594 and 476 and 695 and 327 and 410 and 337 and 384. The Tumor volume Mean [7, 20] was 606 mm³, the “Tumor volume, individual animals” value [7, 20] was 596 and 541 and 738 and 570 and 1128 and 398 and 498 and 499 and 486 and the Tumor volume Mean [7, 21] was 694 mm³. The “Tumor volume, individual animals” value [7, 21] was 630 and 635 and 849 and 718 and 1127 and 586 and 573 and 580 and 545, the Tumor volume Mean [7, 22] was 887 mm³ and the “Tumor volume, individual animals” value [7, 22] was 729 and 821 and 1141 and 926 and 1167 and 805 and 883 and 751 and 758.9. For the same molecule, the Tumor volume Mean [7, 23] was 972 mm³, the “Tumor volume, individual animals” value [7, 23] was 760 and 976 and 1087 and 1021 and 1125 and 811 and 1040 and 1032 and 895 and the Tumor volume Mean [7, 10] was 177 mm³. The “Tumor volume, individual animals” value [7, 10] was 233 and 239 and 173 and 121 and 155 and 235, the Tumor volume Mean [7, 11] was 260 mm³ and the “Tumor volume, individual animals” value [7, 11] was 306 and 299 and 256 and 223 and 292 and 296. For the same molecule, the Tumor volume Mean [7, 12] was 371 mm³, the “Tumor volume, individual animals” value [7, 12] was 537 and 487 and 339 and 249 and 357 and 438 and the Tumor volume Mean [7, 13] was 430 mm³. For the same molecule, the “Tumor volume, individual animals” value [7, 13] was 567 and 541 and 407 and 332 and 403 and 534, the Tumor volume Mean [7, 14] was 531 mm³ and the “Tumor volume, individual animals” value [7, 14] was 666 and 699 and 523 and 388 and 515. For the same molecule, the Tumor volume Mean [7, 15] was 624 mm³, the “Tumor volume, individual animals” value [7, 15] was 718 and 880 and 646 and 506 and 603 and the Tumor volume Mean [7, 16] was 727 mm³. The “Tumor volume, individual animals” value [7, 16] was 811 and 875 and 702 and 717 and 714, the Tumor volume Mean ([7]; 10mg/kg PO QD×21, day 0 after administration) was 174 mm³ and the Tumor volume Mean ([7]; 10mg/kg PO QD×21, day 3 after administration) was 190 mm³. For the same molecule, the Tumor volume Mean ([7]; 10mg/kg PO QD×21, day 6 after administration) was 204 mm³, the Tumor volume Mean ([7]; 10mg/kg PO QD×21, day 9 after administration) was 240 mm³ and the Tumor volume Mean ([7]; 10mg/kg PO QD×21, day 13 after administration) was 243 mm³. It also gave a Tumor volume Mean ([7]; 10mg/kg PO QD×21, day 16 after administration) of 218 mm³, a Tumor volume Mean ([7]; 10mg/kg PO QD×21, day 20 after administration) of 233 mm³ and an IC50 (GSK3 beta) of over 10000 nM. The IC50 ([8]; Mus musculus, BaF3) was 9 nM, the IC50 ([9]; Mus musculus, BaF3) was 4 nM and the IC50 (JNK1) was 2040 ± 1170 nM. It also gave an IC50 (CaMK2 alpha) of 939 ± 99 nM and an IC50 (LCK) of 825 ± 243 nM.
